In PMC8950700 (Pharmaceuticals, 2022):
Read-outs that look alike come from different tables or passages of the source.

Assays:
H5N1N295S virus [1] = format: cell-based, influenza A virus; settings: read-out: IC50 (50% Inhibitory Concentration) H5N1N295S
[2] = test system: A/chicken/Egypt/B13825A/2017 (H5N1wild); test: microbe, parasite or virus in culture; format: cell-based; settings: Influenza A virus
[3] = test system: A/California/04/2009 (H1N1); test: microbe, parasite or virus in culture; format: cell-based; settings: Influenza A virus
in vitro = settings: dog
H5N1V116A virus [4] = format: cell-based, influenza A virus; settings: read-out: IC50 (50% Inhibitory Concentration) H5N1V116A
H5N1wild virus [5] = settings: mouse, in vivo
H1N1 virus [6] = settings: mouse, in vivo
H5N1V116A virus [7] = format: cell-based, influenza A virus
H5N1N295S virus [8] = format: cell-based, influenza A virus
[9] = mouse, in vivo
H1N1 virus [10] = format: cell-based
H5N1wild virus [11] = format: cell-based
H5N1V116A virus [12] = format: cell-based, influenza A virus; remark: listed apart in the source
H5N1N295S virus [13] = format: cell-based, influenza A virus; remark: listed apart in the source
H5N1wild virus [14] = test: microbe, parasite or virus in culture; format: cell-based; settings: Influenza A virus, read-out: viral inhibition in the count of plaques, H5N1wild
[15] = read-out: IC50 (50% Inhibitory Concentration) H5N1wild
[16] = read-out: IC50 H5N1wild (Figure 5)
[17] = H1N1, read-out: IC50 (50% Inhibitory Concentration) H1N1
[18] = H1N1, read-out: IC50 H1N1 (Figure 5)

CC(=O)OC[C@H]1O[C@@H](OCc2cn(Cc3nc4ccccc4[nH]3)nn2)[C@H](OC(C)=O)[C@@H](OC(C)=O)[C@@H]1OC(C)=O [Compound 7a, (2R,3R,4S,5R,6R)-2-((1-((1H-Benzo[d]imidazol-2-yl)methyl)-1H-1,2,3-triazol-4-yl)methoxy)-6-(acetoxymethyl)tetrahydro-2H-pyran-3,4,5-triyl Triacetate]
IC50 (H5N1N295S virus [1]): 283 µM
IC50 [2, 15]: 325 µM
IC50 [2, 16]: 325 µM
IC50 [3, 17]: 84.9 µM
IC50 [3, 18]: 84.9 µM
CC50 at 72 h (in vitro): 685 µM
IC50 (H5N1V116A virus [4]): 48.3 µM

CC(=O)OC[C@H]1O[C@@H](OCc2cn(Cc3nc4ccccc4o3)nn2)[C@H](OC(C)=O)[C@@H](OC(C)=O)[C@@H]1OC(C)=O [Compound 7b, (2R,3R,4S,5R,6R)-2-(Acetoxymethyl)-6-((1-(benzo[d]oxazol-2-ylmethyl)-1H-1,2,3-triazol-4-yl)methoxy)tetrahydro-2H-pyran-3,4,5-triyl Triacetate]
IC50 (H5N1N295S virus [1]): 15.5 µM
IC50 [2, 15]: 37 µM
IC50 [3, 17]: 1.68 µM
IC50 [3, 18]: 1.68 µM
CC50 at 72 h (in vitro): 1050 µM
IC50 (H5N1V116A virus [4]): 22.6 µM

CC(=O)OC[C@H]1O[C@@H](OCc2cn(Cc3nc4ccccc4s3)nn2)[C@H](OC(C)=O)[C@@H](OC(C)=O)[C@@H]1OC(C)=O [Compound 7c, (2R,3R,4S,5R,6R)-2-(Acetoxymethyl)-6-((1-(benzo[d]thiazol-2-ylmethyl)-1H-1,2,3-triazol-4-yl)methoxy)tetrahydro-2H-pyran-3,4,5-triyl Triacetate]
IC50 (H5N1N295S virus [1]): 37.4 µM
IC50 [2, 15]: 1.62 µM
IC50 [3, 17]: 1.65 µM
IC50 [3, 18]: 1.66 µM
CC50 at 72 h (in vitro): 764 µM
IC50 (H5N1V116A virus [4]): 11.3 µM

CC(=O)OC[C@H]1O[C@@H](OCc2cn(Cc3nc4ccccc4[nH]3)nn2)[C@H](OC(C)=O)[C@@H](OC(C)=O)[C@H]1OC(C)=O [Compound 8a, (2R,3R,4S,5S,6R)-2-((1-((1H-Benzo[d]imidazol-2-yl)methyl)-1H-1,2,3-triazol-4-yl)methoxy)-6-(acetoxymethyl)tetrahydro-2H-pyran-3,4,5-triyl Triacetate]
IC50 (H5N1N295S virus [1]): 22.8 µM
IC50 [2, 15]: 26.3 µM
IC50 [3, 17]: 1.61 µM
CC50 at 72 h (in vitro): 503 µM
IC50 (H5N1V116A virus [4]): 924 µM

CC(=O)OC[C@H]1O[C@@H](OCc2cn(Cc3nc4ccccc4o3)nn2)[C@H](OC(C)=O)[C@@H](OC(C)=O)[C@H]1OC(C)=O [Compound 8b, (2R,3S,4S,5R,6R)-2-(Acetoxymethyl)-6-((1-(benzo[d]oxazol-2-ylmethyl)-1H-1,2,3-triazol-4-yl)methoxy)tetrahydro-2H-pyran-3,4,5-triyl Triacetate]
survival after infection with H5N1wild (H5N1wild virus [5]): 60%
IC50 (H5N1N295S virus [1]): 19.6 µM
survival after infection with H1N1 (H1N1 virus [6]): 60%
IC50 [2, 15]: 8.63 µM
IC50 [3, 17]: 1.7 µM
IC50 [3, 18]: 1.7 µM
inhibition in the viral HA titer, H5N1V116A (H5N1V116A virus [7]): more than 80%
inhibition in the viral HA titer, H5N1N295S (H5N1N295S virus [8]): not more than 60%
external observations of mice [9]: normal in external observations
ALT ([9]; 20 mg/kg): 10.66 ± 4.32
AST ([9]; 20 mg/kg): 15 ± 3.41
Creatinine ([9]; 20 mg/kg): 0.17 ± 0.04
Urea ([9]; 20 mg/kg): 9.00 ± 3.81
ALT ([9]; 40 mg/kg): 8.20 ± 2.62
AST ([9]; 40 mg/kg): 15.77 ± 0.9944
Creatinine ([9]; 40 mg/kg): 0.13 ± 0.04
Urea ([9]; 40 mg/kg): 6.66 ± 1.54
ALT ([9]; 80 mg/kg): 6.72 ± 1.47
AST ([9]; 80 mg/kg): 16 ± 5.099
Creatinine ([9]; 80 mg/kg): 0.10 ± 0.02
Urea ([9]; 80 mg/kg): 7.32 ± 3.90
inhibition in the viral HA titer, H1N1 (H1N1 virus [10]): more than 80%
CC50 at 72 h (in vitro): 788 µM
inhibition in the viral HA titer, H5N1wild (H5N1wild virus [11]): more than 80%
IC50 (H5N1V116A virus [4]): 16.2 µM

CC(=O)OC[C@H]1O[C@@H](OCc2cn(Cc3nc4ccccc4s3)nn2)[C@H](OC(C)=O)[C@@H](OC(C)=O)[C@H]1OC(C)=O [Compound 8c, (2R,3S,4S,5R,6R)-2-(Acetoxymethyl)-6-((1-(benzo[d]thiazol-2-ylmethyl)-1H-1,2,3-triazol-4-yl)methoxy)tetrahydro-2H-pyran-3,4,5-triyl Triacetate]
IC50 (H5N1N295S virus [1]): 64.7 µM
IC50 [2, 15]: 1.65 µM
IC50 [3, 17]: 1.64 µM
IC50 [3, 18]: 1.64 µM
CC50 at 72 h (in vitro): 312 µM
IC50 (H5N1V116A virus [4]): 68.6 µM

CC(=O)O[C@@H]1[C@@H](OC(C)=O)[C@H](OCc2cn(Cc3nc4ccccc4[nH]3)nn2)OC[C@H]1OC(C)=O [Compound 9a, (2R,3R,4S,5R,)-2-((1-((1H-Benzo[d]imidazol-2-yl)methyl)-1H-1,2,3-triazol-4-yl)methoxy)tetrahydro-2H-pyran-3,4,5-triyl Triacetate]
virus shedding in the nasal wash (EID50), H5N1wild (H5N1wild virus [5]): reduced the viral shedding
IC50 (H5N1N295S virus [1]): 5.62 µM
survival after infection with H1N1 (H1N1 virus [6]): 60%
viral titer in lung tissue (TCID50), H1N1 (H1N1 virus [6]): significantly reduced the propagation
virus shedding in the nasal wash (EID50), H1N1 (H1N1 virus [6]): significantly reduced the viral titer
IC50 [2, 15]: 5.8 µM
IC50 [3, 17]: 1.65 µM
IC50 [3, 18]: 1.65 µM
inhibition in the viral HA titer, H5N1V116A (H5N1V116A virus [7]): more than 80%
inhibition in the viral HA titer, H5N1N295S (H5N1N295S virus [8]): not more than 50%
external observations of mice [9]: normal in external observations
ALT ([9]; 20 mg/kg): 9.64 ± 3.64
AST ([9]; 20 mg/kg): 20 ± 6.957
Creatinine ([9]; 20 mg/kg): 0.13 ± 0.04
Urea ([9]; 20 mg/kg): 7.32 ± 2.09
ALT ([9]; 40 mg/kg): 10.64 ± 1.38
AST ([9]; 40 mg/kg): 13.77 ± 1.298
Creatinine ([9]; 40 mg/kg): 0.13 ± 0.04
Urea ([9]; 40 mg/kg): 7.32 ± 0.48
ALT ([9]; 80 mg/kg): 8.67 ± 2.16
AST ([9]; 80 mg/kg): 15.33 ± 0.9686
Creatinine ([9]; 80 mg/kg): 0.17 ± 0.04
Urea ([9]; 80 mg/kg): 4.64 ± 1.12
inhibition in the viral HA titer, H1N1 (H1N1 virus [10]): more than 80%
CC50 at 72 h (in vitro): 795 µM
inhibition in the viral HA titer, H5N1wild (H5N1wild virus [11]): not more than 50%
IC50 (H5N1V116A virus [4]): 5.62 µM

CC(=O)O[C@@H]1[C@@H](OC(C)=O)[C@H](OCc2cn(Cc3nc4ccccc4o3)nn2)OC[C@H]1OC(C)=O [Compound 9b, (2R,3R,4S,5R)-2-((1-(Benzo[d]oxazol-2-ylmethyl)-1H-1,2,3-triazol-4-yl)methoxy)tetrahydro-2H-pyran-3,4,5-triyl Triacetate]
IC50 (H5N1N295S virus [1]): 12.3 µM
IC50 [2, 15]: 1.67 µM
IC50 [3, 17]: 1.68 µM
CC50 at 72 h (in vitro): 478 µM
IC50 (H5N1V116A virus [4]): 56.7 µM

CC(=O)O[C@@H]1[C@@H](OC(C)=O)[C@H](OCc2cn(Cc3nc4ccccc4s3)nn2)OC[C@H]1OC(C)=O [Compound 9c, (2R,3R,4S,5R)-2-((1-(Benzo[d]thiazol-2-ylmethyl)-1H-1,2,3-triazol-4-yl)methoxy)tetrahydro-2H-pyran-3,4,5-triyl Triacetate]
survival after infection with H5N1wild (H5N1wild virus [5]): 80%
viral titer in lung tissue (TCID50), H5N1wild (H5N1wild virus [5]): reduced the propagation
virus shedding in the nasal wash (EID50), H5N1wild (H5N1wild virus [5]): reduced the viral shedding
IC50 (H5N1N295S virus [1]): 55.1 µM
survival after infection with H1N1 (H1N1 virus [6]): full protection from mortality
viral titer in lung tissue (TCID50), H1N1 (H1N1 virus [6]): reduced the propagation
IC50 [2, 15]: 2.25 µM
IC50 [3, 17]: 1.64 µM
IC50 [3, 18]: 1.64 µM
inhibition in the viral HA titer, H5N1V116A (H5N1V116A virus [7]): more than 80%
inhibition in the viral HA titer, H5N1N295S (H5N1N295S virus [8]): not more than 50%
external observations of mice [9]: normal in external observations
ALT ([9]; 20 mg/kg): 7.60 ± 1.56
AST ([9]; 20 mg/kg): 11.93 ± 3.765
Creatinine ([9]; 20 mg/kg): 0.14 ± 0.05
Urea ([9]; 20 mg/kg): 7.90 ± 3.13
ALT ([9]; 40 mg/kg): 7.80 ± 2.07
AST ([9]; 40 mg/kg): 9.689 ± 2.922
Creatinine ([9]; 40 mg/kg): 0.14 ± 0.05
Urea ([9]; 40 mg/kg): 3.64 ± 1.49
ALT ([9]; 80 mg/kg): 5.54 ± 1.22
AST ([9]; 80 mg/kg): 12.33 ± 3.169
Creatinine ([9]; 80 mg/kg): 0.13 ± 0.04
Urea ([9]; 80 mg/kg): 4.88 ± 2.13
inhibition in the viral HA titer, H1N1 (H1N1 virus [10]): more than 80%
CC50 at 72 h (in vitro): 302 µM
inhibition in the viral HA titer, H5N1wild (H5N1wild virus [11]): more than 80%
IC50 (H5N1V116A virus [4]): 1.65 µM

CCOC(=O)C1=C[C@H](N)C(NC(C)=O)[C@H](OC(CC)CC)C1 (stereo partly drawn) [oseltamivir, reference compound]
survival after infection with H5N1wild (H5N1wild virus [5]): 60%
viral titer in lung tissue (TCID50), H5N1wild (H5N1wild virus [5]): reduced the propagation
IC50 (H5N1N295S virus [1]): 25.8 µM
viral inhibition in the count of plaques, H5N1V116A (H5N1V116A virus [12]): ~40%
mortality after infection with H1N1 (H1N1 virus [6]): 60%
viral titer in lung tissue (TCID50), H1N1 (H1N1 virus [6]): did not affect
IC50 [2, 15]: 10.1 µM
IC50 [2, 16]: 10.1 µM
IC50 [3, 17]: 1.65 µM
viral inhibition in the count of plaques, H5N1N295S (H5N1N295S virus [13]): ~8.5%
inhibition in the viral HA titer, H5N1V116A (H5N1V116A virus [7]): not more than 80%
inhibition in the viral HA titer, H5N1N295S (H5N1N295S virus [8]): ≤ 20%
inhibition in the viral HA titer, H1N1 (H1N1 virus [10]): not more than 80%
CC50 at 72 h (in vitro): 581 µM
inhibition in the viral HA titer, H5N1wild (H5N1wild virus [11]): ≤ 20%
IC50 (H5N1V116A virus [4]): 309 µM
inhibition at 5 µM (H5N1wild virus [14]): ~90%
